13 compounds from US11040027B2, “Protein kinase inhibitors for promoting liver regeneration or reducing or preventing hepatocyte death” (HEPAREGENIX GMBH, priority 2017, dated 2021) can be followed below.

One experiment concerns the target BRaf (Homo sapiens, UniProt P15056). The experiment in a line: KINOMEscan competition binding assay, selectivity BRaf versus MKK4. The conditions noted are these: Test conc. 0.1 μM; ratio of percent of control; N/E* per footnote. As to the method:
The assay was performed by combining three components: DNA-tagged kinase; immobilized ligand; and a test compound. The ability of the test compound to compete with the immobilized ligand was measured via quantitative PCR of the DNA tag. The technology is described in detail in Fabian, M. A. et al. A small molecule-kinase interaction map for clinical kinase inhibitors. Nat. […] Nat.
The test compounds were provided as 10 mM stock solutions. The test solutions at indicated final concentrations were prepared at DiscoverX.

Another experiment deals with T1, MKK4 active (Homo sapiens, UniProt P45985).
T1 construct: purchased ProQinase 0948-0000-1
T1 sequence (P45985 1-399): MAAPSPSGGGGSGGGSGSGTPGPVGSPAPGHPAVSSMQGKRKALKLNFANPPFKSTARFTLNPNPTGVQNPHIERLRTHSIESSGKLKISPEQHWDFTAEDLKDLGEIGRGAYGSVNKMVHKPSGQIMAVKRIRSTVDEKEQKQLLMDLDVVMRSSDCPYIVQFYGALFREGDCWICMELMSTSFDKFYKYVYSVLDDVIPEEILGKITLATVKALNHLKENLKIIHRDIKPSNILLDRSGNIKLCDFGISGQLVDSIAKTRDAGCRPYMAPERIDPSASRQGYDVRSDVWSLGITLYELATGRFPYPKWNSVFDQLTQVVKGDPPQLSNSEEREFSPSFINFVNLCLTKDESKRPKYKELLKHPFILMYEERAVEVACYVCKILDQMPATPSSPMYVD
The experiment in a line: Radiometric protein kinase assay, MKK4 active. The conditions noted are these: substrate JNK1 KRKR, ATP 0.2 μM, read-out: MKK4 (potency derived from IC50-values). It counts as biochemical. Here is the method: (§1) A radiometric protein kinase assay was used for measuring the kinase activity of the respective protein kinases. All kinase assays were performed in 96-well polypropylene plates. After the reactions were stopped, the assay mixtures were transferred to 96-well MSFC filter-plates (Millipore). The reaction mix was passed through the filter membrane by aspiration, the membrane was washed 3 times with 150 mM H3PO4, once with ethanol, dried and liquid scintillation cocktail was added. Radioactivity was determined by counting of the samples in a Microbeta multiwell scintillation counter (Wallac).
(§2) b) Single Kinases • 20 μl standard assay buffer • 5 μl compound in 10% DMSO • 20 μl enzyme-substrate mix • 10 μl of substrate solution
(§3) The reaction cocktails were incubated at 30° C. for 30 minutes.

For another experiment, the target named is T2, MEKK2 (Homo sapiens, UniProt Q9Y2U5).
T2 construct: purchased ProQinase 0583-0000-1
T2 sequence (Q9Y2U5 1-619): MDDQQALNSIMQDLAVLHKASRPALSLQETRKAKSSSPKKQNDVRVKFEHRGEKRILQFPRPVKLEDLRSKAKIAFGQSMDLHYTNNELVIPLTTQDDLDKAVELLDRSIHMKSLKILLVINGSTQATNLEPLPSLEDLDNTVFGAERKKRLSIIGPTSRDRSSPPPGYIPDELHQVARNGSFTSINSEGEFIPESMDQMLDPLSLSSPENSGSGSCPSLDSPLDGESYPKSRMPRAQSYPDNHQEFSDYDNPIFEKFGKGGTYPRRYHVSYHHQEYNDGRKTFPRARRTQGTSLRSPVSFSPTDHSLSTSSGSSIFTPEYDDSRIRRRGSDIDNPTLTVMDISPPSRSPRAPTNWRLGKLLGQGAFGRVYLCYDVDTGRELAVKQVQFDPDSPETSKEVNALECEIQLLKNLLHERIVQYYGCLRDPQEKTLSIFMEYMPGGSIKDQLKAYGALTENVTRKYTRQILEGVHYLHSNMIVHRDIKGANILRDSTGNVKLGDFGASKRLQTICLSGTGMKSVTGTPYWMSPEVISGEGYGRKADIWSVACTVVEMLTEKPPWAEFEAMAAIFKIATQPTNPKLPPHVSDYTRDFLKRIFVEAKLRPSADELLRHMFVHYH
The experiment in a line: Radiometric protein kinase assay, MEKK2. In kind it is biochemical. Particulars: substrate Casein, ATP 0.2 μM; read-out: MEKK2 (potency derived from IC50-values). As to the method:
as §1, §2, §3

In the next experiment the target is T3, MKK4 (Homo sapiens, UniProt P45985).
T3 sequence (P45985 84-399): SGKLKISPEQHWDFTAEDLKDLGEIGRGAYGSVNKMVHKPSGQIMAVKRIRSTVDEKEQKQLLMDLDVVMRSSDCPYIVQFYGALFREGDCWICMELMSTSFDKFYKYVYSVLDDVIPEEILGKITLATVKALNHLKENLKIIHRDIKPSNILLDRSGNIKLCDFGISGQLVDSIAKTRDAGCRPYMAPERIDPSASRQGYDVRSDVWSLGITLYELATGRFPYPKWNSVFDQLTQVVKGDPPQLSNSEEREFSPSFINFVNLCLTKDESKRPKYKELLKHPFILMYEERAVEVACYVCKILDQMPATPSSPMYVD
The experiment in a line: KINOMEscan competition binding assay, MKK4. Particulars: read-out: Potency MKK4 (derived from % of control values, PoC).

The next experiment addresses JNK1 (Homo sapiens, UniProt P45983). The experiment in a line: KINOMEscan competition binding assay, selectivity JNK1 versus MKK4. Particulars: ratio of percent of control.
A further experiment addresses T4, MKK7 (Homo sapiens, UniProt O14733).
T4 sequence (O14733 1-419): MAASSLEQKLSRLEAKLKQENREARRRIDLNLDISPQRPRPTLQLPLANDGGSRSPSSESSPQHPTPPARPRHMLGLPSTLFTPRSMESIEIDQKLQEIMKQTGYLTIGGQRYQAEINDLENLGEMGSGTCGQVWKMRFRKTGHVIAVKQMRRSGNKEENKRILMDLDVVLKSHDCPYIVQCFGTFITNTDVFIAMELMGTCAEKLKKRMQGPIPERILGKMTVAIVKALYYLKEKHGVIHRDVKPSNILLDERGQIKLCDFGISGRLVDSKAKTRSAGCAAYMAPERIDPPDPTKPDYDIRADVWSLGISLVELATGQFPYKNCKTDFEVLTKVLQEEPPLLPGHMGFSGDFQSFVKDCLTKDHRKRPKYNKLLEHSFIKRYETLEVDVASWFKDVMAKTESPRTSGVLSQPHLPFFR
The experiment in a line: KINOMEscan competition binding assay, selectivity MKK7 versus MKK4. The conditions noted are these: Test conc. 0.1 μM; ratio of percent of control; N/E* per footnote.

The mark [1] stands for this setting: Test conc 0.1 μM, N/E* = PoC for JNK1 = 100.

pIC50: −log10 of the molar value.

JNK1, sequence (P45983 1-384 isoform P45983-2): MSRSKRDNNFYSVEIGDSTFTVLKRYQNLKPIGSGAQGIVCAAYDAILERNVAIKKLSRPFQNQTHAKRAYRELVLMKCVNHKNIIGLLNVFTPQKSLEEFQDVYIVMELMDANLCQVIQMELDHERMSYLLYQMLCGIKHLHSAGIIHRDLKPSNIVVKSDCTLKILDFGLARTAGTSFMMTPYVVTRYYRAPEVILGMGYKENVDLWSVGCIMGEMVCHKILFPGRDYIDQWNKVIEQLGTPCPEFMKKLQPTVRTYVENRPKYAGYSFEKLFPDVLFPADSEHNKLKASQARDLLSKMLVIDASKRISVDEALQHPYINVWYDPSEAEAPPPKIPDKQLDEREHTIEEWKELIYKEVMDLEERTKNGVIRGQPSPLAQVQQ
BRaf, sequence (P15056 whole entry): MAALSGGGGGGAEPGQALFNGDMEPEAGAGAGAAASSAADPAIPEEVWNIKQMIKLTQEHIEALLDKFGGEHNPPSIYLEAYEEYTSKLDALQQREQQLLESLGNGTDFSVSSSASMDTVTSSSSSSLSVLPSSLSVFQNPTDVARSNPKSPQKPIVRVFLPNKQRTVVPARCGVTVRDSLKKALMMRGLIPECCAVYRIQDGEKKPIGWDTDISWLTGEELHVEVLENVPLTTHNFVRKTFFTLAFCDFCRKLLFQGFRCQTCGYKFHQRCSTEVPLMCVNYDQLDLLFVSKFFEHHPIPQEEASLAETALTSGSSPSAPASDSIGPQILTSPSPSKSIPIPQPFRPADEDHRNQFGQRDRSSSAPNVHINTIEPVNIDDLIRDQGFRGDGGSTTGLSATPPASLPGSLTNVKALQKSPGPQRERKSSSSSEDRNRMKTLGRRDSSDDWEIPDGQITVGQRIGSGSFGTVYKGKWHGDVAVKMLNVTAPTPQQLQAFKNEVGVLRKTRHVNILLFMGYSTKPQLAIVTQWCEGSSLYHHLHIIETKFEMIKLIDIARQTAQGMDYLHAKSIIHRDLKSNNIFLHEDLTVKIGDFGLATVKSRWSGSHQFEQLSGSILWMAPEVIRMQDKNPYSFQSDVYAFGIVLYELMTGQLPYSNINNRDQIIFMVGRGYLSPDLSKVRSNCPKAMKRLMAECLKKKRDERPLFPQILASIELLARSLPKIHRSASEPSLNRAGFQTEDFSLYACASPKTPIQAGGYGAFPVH
Protocol for JNK1: For investigation of the affinity to MKK4, MKK7 and JNK1, the kinases were produced in HEK-293 cells and subsequently tagged with DNA for qPCR detection. […] The liganded beads were blocked with excess biotin and washed with blocking buffer (SEABLOCK™ (Pierce), 1% BSA, 0.05% TWEEN®20, 1 mM DTT) to remove unbound ligand and to reduce nonspecific binding. […] All reactions were performed in polystyrene 96-well plates in a final volume of 0.135 mL. […] The kinase concentration in the eluates was measured by qPCR.

Usually pIC50 stands for the IC50 on a negative log10 scale, so that one unit is a factor of ten. As for `CCCS(=O)(=O)Nc1ccc(F)c(C(=O)c2c[nH]c3ncc(-c4ccc(C(C)C)cc4)cc23)c1F` [Example 7, N-(2,4-Difluoro-3-(5-(4-isopropylphenyl)-1H-pyrrolo[2,3-b]pyridine-3-carbonyl)phenyl)propane-1-sulfonamide], the “Selectivity BRaf/MKK4” value at BRaf is reported as 0.9. Besides, the results for the pIC50 at MKK4 active and at MEKK2 were 6.00 to 6.30 and less than 5.00, respectively. At MKK4, the remaining binding at 0.1 µM is greater than 30%. Further, on JNK1 (Test conc 10 μM), the “Selectivity JNK1/MKK4” value is reported as greater than 100. Besides, the “Selectivity MKK7/MKK4” value at MKK7 was 3.0.
Take `CCCS(=O)(=O)Nc1ccc(F)c(C(=O)c2c[nH]c3ncc(-c4ccc5c(c4)OCO5)cc23)c1F` [Example 10, N-(3-(5-(Benzo[d][1,3]dioxol-5-yl)-1H-pyrrolo[2,3-b]pyridine-3-carbonyl)-2,4-difluorophenyl)propane-1-sulfonamide]: at BRaf, the “Selectivity BRaf/MKK4” value is 4.2. Further, the pIC50 on MKK4 active and at MEKK2 was less than 5.00 throughout. The remaining binding at 0.1 µM on MKK4 is less than 10%. Moreover, the “Selectivity JNK1/MKK4” value on JNK1 (Test conc 10 μM) is on record as greater than 100. Also, on MKK7, the “Selectivity MKK7/MKK4” value was determined as 270.
In the case of `CCCS(=O)(=O)Nc1ccc(F)c(C(=O)c2c[nH]c3ncc(-c4ccc(F)cc4C)cc23)c1F` [Example 12, N-(2,4-Difluoro-3-(5-(4-fluoro-2-methylphenyl)-1H-pyrrolo[2,3-b]pyridine-3-carbonyl)phenyl)propane-1-sulfonamide], the “Selectivity BRaf/MKK4” value on BRaf is recorded as 7.8. For the same compound, the results for the pIC50 at MKK4 active and at MEKK2 were 6.00 to 6.30 and less than 5.00, respectively. In addition, the remaining binding at 0.1 µM on MKK4 lay in the range of 10 to 30%. For the same compound, the “Selectivity JNK1/MKK4” value on JNK1 (Test conc 10 μM) is given as greater than 100. For the same compound, the “Selectivity MKK7/MKK4” value at MKK7 amounted to 10.
With `CCCS(=O)(=O)Nc1ccc(F)c(C(=O)c2c[nH]c3ncc(-c4cccc(N)c4)cc23)c1F` [Example 19, N-(3-(5-(3-Aminophenyl)-1H-pyrrolo[2,3-b]pyridine-3-carbonyl)-2,4-difluorophenyl)propane-1-sulfonamide], the pIC50 at MEKK2 was 5.00 to 6.00.
The same measure, in the same setting: the same measure for `COCCS(=O)(=O)Nc1ccc(F)c(C(=O)c2c[nH]c3ncc(-c4ccc(Cl)cc4)cc23)c1F` [Example 32, N-(3-(5-(4-Chlorophenyl)-1H-pyrrolo[2,3-b]pyridine-3-carbonyl)-2,4-difluorophenyl)-2-methoxyethane-1-sulfonamide]: less than 5.00; for `CCCS(=O)(=O)Nc1ccc(F)c(C(=O)c2c[nH]c3ncc(-c4ccc(OC)cc4Cl)cc23)c1F` [Example 39, N-(3-(5-(2-Chloro-4-methoxyphenyl)-1H-pyrrolo[2,3-b]pyridine-3-carbonyl)-2,4-difluorophenyl)propane-1-sulfonamide]: 5.00 to 6.00.
Regarding `CCCS(=O)(=O)Nc1ccc(F)c(C(=O)c2c[nH]c3ncc(-c4cc5c(cc4Cl)OCO5)cc23)c1F` [Example 43, N-(3-(5-(6-Chlorobenzo[d][1,3]dioxol-5-yl)-1H-pyrrolo[2,3-b]pyridine-3-carbonyl)-2,4-difluorophenyl)propane-1-sulfonamide], the “Selectivity BRaf/MKK4” value at BRaf is on record as 7.7. Also, the figures for the pIC50 on MKK4 active and at MEKK2 were greater than 6.30 and 5.00 to 6.00, respectively. Moreover, the “Selectivity JNK1/MKK4” value at JNK1 (setting [1]) is “N/E* (PoC for JNK1 = 100)”. Moreover, the “Selectivity MKK7/MKK4” value on MKK7 is given as 9.1.
With `CCCS(=O)(=O)Nc1ccc(F)c(C(=O)c2c[nH]c3ncc(-c4ccc(Cl)cc4)cc23)c1Cl` [Example 86, N-(2-chloro-3-(5-(4-chlorophenyl)-1H-pyrrolo[2,3-b]pyridine-3-carbonyl)-4-fluorophenyl)propane-1-sulfonamide], the figures for the pIC50 on MKK4 active and at MEKK2 were 5.00 to 6.00 and less than 5.00, respectively.
For the compound `CCCS(=O)(=O)Nc1ccc(F)c(C(=O)c2c[nH]c3ncc(-c4ccc(OCOC)cc4Cl)cc23)c1F` [Example 102, N-(3-(5-(2-chloro-4-(methoxymethoxy)phenyl)-1H-pyrrolo[2,3-b]pyridine-3-carbonyl)-2,4-difluorophenyl)propane-1-sulfonamide], the “Selectivity BRaf/MKK4” value on BRaf is given as 17. The remaining binding at 0.1 µM at MKK4 is less than 10%. In addition, the “Selectivity JNK1/MKK4” value at JNK1 (setting [1]) is given as “N/E* (PoC for JNK1 = 100)”. The “Selectivity MKK7/MKK4” value on MKK7 is given as “N/E* (PoC for JNK1 = 100)”.
For the compound `O=C(c1c(F)ccc(NS(=O)(=O)CCc2ccccc2)c1F)c1c[nH]c2ncc(-c3ccc(Cl)cc3)cc12` [Example 103, N-(3-(5-(4-chlorophenyl)-1H-pyrrolo[2,3-b]pyridine-3-carbonyl)-2,4-difluorophenyl)-2-phenylethane-1-sulfonamide], the negative logarithm of the IC50 (pIC50) on MEKK2 was greater than 6.30.
For `CCCS(=O)(=O)Nc1ccc(F)c(C2(c3c[nH]c4ncc(-c5ccc(Cl)cc5)cc34)OCCO2)c1F` [Example 104, N-(3-(2-(5-(4-chlorophenyl)-1H-pyrrolo[2,3-b]pyridin-3-yl)-1,3-dioxolan-2-yl)-2,4-difluorophenyl)propane-1-sulfonamide], the negative logarithm of the IC50 (pIC50) at MEKK2 is less than 5.00.
For the compound `CCCS(=O)(=O)Nc1nc(C(=O)c2c[nH]c3ncc(-c4ccc(Cl)cc4)cc23)cs1` [Example 111, N-(4-(5-(4-chlorophenyl)-1H-pyrrolo[2,3-b]pyridine-3-carbonyl)thiazol-2-yl)propane-1-sulfonamide], at BRaf, the “Selectivity BRaf/MKK4” value is “N/E* (PoC for JNK1 = 100)”. Also, at MKK4, the remaining binding at 1 µM was greater than 30%. Moreover, on JNK1 (setting [1]), the “Selectivity JNK1/MKK4” value was “N/E* (PoC for JNK1 = 100)”. On MKK7, the “Selectivity MKK7/MKK4” value is less than 1.
As for `CCCS(=N)(=O)Nc1ccc(F)c(C(=O)c2c[nH]c3ncc(-c4ccc(Cl)cc4)cc23)c1F` (stereo not shown) [Example 112, N-(3-(5-(4-chlorophenyl)-1H-pyrrolo[2,3-b]pyridine-3-carbonyl)-2,4-difluorophenyl)propane-1-sulfonimidamide], the figures for the pIC50 at MKK4 active and at MEKK2 were 5.00 to 6.00 and less than 5.00, respectively.
